The source of these data is US10226448B2, “3-(1H-pyrrolo[3,2-C]pyridin-2-yl)-1H-pyrazolo[3,4-B]pyridines and therapeutic uses thereof” (Samumed, LLC, priority 2015, dated 2019).

Holding throughout (assay type): cell-based
Assay [1] has as its system SW480 colon cancer cells. Kind of assay: Cell viability assay (CellTiter-Blue) in SW480 colon cancer cells. As to conditions: Homo sapiens; for EC50: 96 h, SW480 cell viability, four days, CellTiter-Blue; for inhibition at 10 µM: SW480, read-out: percent inhibition at 10 μM. The procedure: Representative compounds were screened using the following assay procedure to assess the effect on cell viability as described below.
Approximately 2×10^3 SW480 colon cancer cells were seeded into each well and allowed to incubate in the presence or absence of compound for four days at 37° C./5% CO2. Eight replicates of DMSO-treated cells served as controls and cells treated with compound were performed in duplicate.
After incubation, 20 μL of CellTiter-Blue (Promega) was added to each well allowed to incubate for approximately 3 hours. This reagent was a buffered solution which contains resazurin, metabolically active cells were able to reduce rezarurin (blue) into resorufin (pink) which was highly fluorescent. This measured fluorescence was used as a readout for cell viability.
A general note: The colour change of resazurin is a common sign of viable cells or microbes.

For assay [2], the system named is primary human mesenchymal stem cells (hMSCs). Description: Induction of chondrogenesis in primary human mesenchymal stem cells (chondrogenic nodules, Rhodamine B / Nile Red). As to conditions: 6 days; for Emax: relative to TGF-β3 (10 ng/mL) positive control, read-out: Max. Activity as % TGF-β3 activity; for EC50: concentration required to induce 50% levels of chondrogenesis vs TGF-β3, read-out: Conc (nM) of 50% TGF-β3 activity. The source says: Representative compounds were screened using primary human mesenchymal stem cells (hMSCs) to determine their ability to induce chondrogenesis (process by which cartilage is developed).
Human Mesenchymal Stem Cell Culture: Primary human mesenchymal stem cells (hMSCs) were purchased from Lonza (Walkersville, Md.) and expanded in Mesenchymal Stem Cell Growth Media (Lonza). Cells between passage 3 and 6 were used for the experiments.
To image chondrogenic nodules, the cells were fixed using 4% formaldehyde (Electron Microscopy Sciences), and stained with 2 μg/mL Rhodamine B (Sigma-Aldrich) and 20 μM Nile Red (Sigma-Aldrich) [Johnson K., et. al, A Stem Cell-Based Approach to Cartilage Repair, Science, (2012). […] Number of nodules in each well was normalized to the average of 3 DMSO treated wells on the same plate using Excel (Microsoft Inc.). The normalized averages (fold change over DMSO) of 3 replicate wells for each compound concentration were calculated. Due to solubility limitations of some of the compounds, curve fitting was incomplete leading to inaccurate EC50 determinations.
Using TGF-β3 as a positive control, the concentration of representative compounds required to induce 50% levels of chondrogenesis is reported. In addition, the maximum activity of each compound and the respective dose that each compound reached maximum chondrogenesis activity is reported.

For assay [3], the system named is LL29 cells (primary human fibroblasts derived from IPF patients), α-smooth muscle actin. Kind of assay: Inhibition of the fibrotic process: αSMA staining in TGF-β1 treated primary human fibroblasts from IPF patients (LL29 cells). To be noted: Fibroblast; for EC50: 96 h, LL29 cells, TGF-β1 20 ng/mL, 4 days, % αSMA positive cells; for inhibition at 10 µM: read-out: percent inhibition at 10 μM. The protocol:
Representative compounds were screened using primary human fibroblasts (derived from IPF patients) treated with TGF-β1 to determine their ability to inhibit the fibrotic process.
LL29 cells are plated at 1,500 cells/well in 80 μL/well F12 medium supplemented with 1% Fetal Bovine Serum. […] Wells treated with TGF-β1 and containing DMSO were used as controls. […] Following incubation for 4 days, SYTOX green nucleic acid stain (Life Technologies [Thermo Fisher Scientific]) was added to the wells at a final concentration of 1 μM and incubated at room temperature for 30 min.

The test system of assay [4] is Wnt activity (Sp5-Luc reporter, TCF/LEF binding sites) in SW480 colon carcinoma cells. Description: Wnt activity screening assay: Sp5-Luc reporter gene assay in SW480 cells. As to conditions: Homo sapiens; Sp5-Luc reporter, SW480 cells, overnight incubation. The source says:
The screening assay for Wnt activity is described as follows. Reporter cell lines can be generated by stably transducing cancer cell lines (e.g., colon cancer) or primary cells (e.g., IEC-6 intestinal cells) with a lentiviral construct that includes a Wnt-responsive promoter driving expression of the firefly luciferase gene.
SW480 colon carcinoma cells were transduced with a lentiviral vector expressing luciferase with a human Sp5 promoter consisting of a sequence of eight TCF/LEF binding sites. SW480 cells stably expressing the Sp5-Luc reporter gene and a hygromycin resistance gene were selected by treatment with 150 μg/mL of hygromycin for 7 days. These stably transduced SW480 cells were expanded in cell culture and used for all further screening activities. […] For Sp5-Luc reporter gene assays, the cells were plated at 4,000 cells/well in 384-well plates with medium containing 1% fetal bovine serum and incubated overnight at 37° C. and 5% CO2. Following incubation, 20 μl of BrightGlo luminescence reagent (Promega) was added to each well of the 384-well assay plates. The plates were placed on an orbital shaker for 2 min and then luminescence was quantified using the Envision (Perkin Elmer) plate reader. Readings were normalized to DMSO only treated cells, and normalized activities were utilized for EC50 calculations using the dose-response log (inhibitor) vs. response variable slope (four parameters) nonlinear regression feature available in GraphPad Prism 5.0 (or Dotmatics).

Assay [5] has as its system IL-6 in THP-1 cells. Kind of assay: IL-6 inhibition in LPS-stimulated THP-1 human monocyte cells (HTRF). To be noted: for EC50: IL-6 inhibition, LPS-stimulated THP-1 cells, HTRF, 10-point dose-response starting from 10 μM; for inhibition at 10 µM: THP-1, read-out: percentage in parentheses beside EC50 >10. The protocol: Compound Screening: THP-1 cells were cultured in basal media with 1% FBS for 24 hours before the start of the assay. […] THP-1 cells were plated at 5000 cells/well in the 384-well plates and incubated at 37° C. for 2 h. 500 ng/mL of LPS was added after 2 hours and cells were incubated for another 22 hours at 37° C. Plates were spun in a centrifuge for 1 minute at […] and a mixture of anti-IL6 XL665, and anti-IL6 Cryptate diluted in reconstitution buffer (Cisbio Inc.) was added to each well. Following incubation for 3 hrs at room temperature, Homogeneous Time-Resolved Fluorescence (HTRF) was measured using the Envision (Perkin Elmer) at 665 nm and […]. The ratio of fluorescence at 665 nm to 620 nm was used as a readout for IL6 quantification. All samples were processed in duplicate. Readings were normalized to DMSO treated cells and normalized activities were utilized for EC50 calculations using the dose-response log (inhibitor) vs. response variable slope (four parameters) nonlinear regression feature available in GraphPad Prism 5.0 (or Dotmatics).
For orientation: In TR-FRET formats the signal depends on donor and acceptor labels being close together.

Where only a bound is given, the exact number is not on record here.

For the compound `CCC(=O)Nc1cncc(-c2cnc3[nH]nc(-c4cc5cnccc5[nH]4)c3c2)c1` [Compound 253, N-(5-(3-(1H-Pyrrolo[3,2-c]pyridin-2-yl)-1H-pyrazolo[3,4-b]pyridin-5-yl)pyridin-3-yl)propionamide], the EC50 in assay [1] is above 10000 nM; in assay [3], 3710 nM; in assay [4], 960 nM; in assay [5] it was 1000 nM. The inhibition at 10 µM in assay [1] came out at 50.3%. Besides, the Emax in assay [2] turned out to be 17%.

With `O=C(Nc1cncc(-c2cnc3[nH]nc(-c4cc5c(-c6ccc(F)cc6)nccc5[nH]4)c3c2)c1)C1CCC1` [Compound 49, N-(5-(3-(4-(4-Fluorophenyl)-1H-pyrrolo[3,2-c]pyridin-2-yl)-1H-pyrazolo[3,4-b]pyridin-5-yl)pyridin-3-yl)cyclobutanecarboxamide], the EC50 was determined as 595 nM in assay [1]; 10 nM in assay [2]; 360 nM in assay [3]; 1170 nM in assay [4]; 1480 nM in assay [5]. For the same compound, the Emax in assay [2] amounted to 208%.

Take `CCCC(=O)Nc1cncc(-c2cnc3[nH]nc(-c4cc5c(-c6ccccc6F)nccc5[nH]4)c3c2)c1` [Compound 73, N-(5-(3-(4-(2-Fluorophenyl)-1H-pyrrolo[3,2-c]pyridin-2-yl)-1H-pyrazolo[3,4-b]pyridin-5-yl)pyridin-3-yl)butyramide]: the EC50 in assay [1] turned out to be 348 nM; in assay [3], 2660 nM; in assay [4], 472 nM; in assay [5] it was 36 nM. In addition, in assay [2], the Emax was 53%.

Consider `c1cc2[nH]c(-c3n[nH]c4ncc(-c5cncc(CN6CCCCC6)c5)cc34)cc2c(N2CCCCC2)n1` [Compound 183, 3-(4-(Piperidin-1-yl)-1H-pyrrolo[3,2-c]pyridin-2-yl)-5-(5-(piperidin-1-ylmethyl)pyridin-3-yl)-1H-pyrazolo[3,4-b]pyridine], for which the EC50 in assay [1] worked out at 827 nM; in assay [2] it was 900 nM; in assay [3], 1220 nM; in assay [4] it was 3850 nM; in assay [5], 4800 nM. In assay [2], the Emax stood at 62%.

`CC(C)(C)CC(=O)Nc1cncc(-c2cnc3[nH]nc(-c4cc5c(N6CCCCC6)nccc5[nH]4)c3c2)c1` [Compound 184, 3,3-Dimethyl-N-(5-(3-(4-(piperidin-1-yl)-1H-pyrrolo[3,2-c]pyridin-2-yl)-1H-pyrazolo[3,4-b]pyridin-5-yl)pyridin-3-yl)butanamide]: the EC50 worked out at 1430 nM in assay [1], 773 nM in assay [3], 1330 nM in assay [4] and 2260 nM in assay [5]. Besides, the Emax in assay [2] was 84%.

As for `CN1CCN(c2nccc3[nH]c(-c4n[nH]c5ncc(-c6cncc(NC(=O)c7ccccc7)c6)cc45)cc23)CC1` [Compound 235, N-(5-(3-(4-(4-Methylpiperazin-1-yl)-1H-pyrrolo[3,2-c]pyridin-2-yl)-1H-pyrazolo[3,4-b]pyridin-5-yl)pyridin-3-yl)benzamide], the EC50 was above 10000 nM in assay [1], 891 nM in assay [3], 3240 nM in assay [4] and 6980 nM in assay [5]. In addition, the inhibition at 10 µM in assay [1] is 19.1%. The Emax in assay [2] is 63%.

Take `CCC(=O)Nc1cncc(-c2cnc3[nH]nc(-c4cc5c(-c6cccc(F)c6)nccc5[nH]4)c3c2)c1` [Compound 1, N-(5-(3-(4-(3-Fluorophenyl)-1H-pyrrolo[3,2-c]pyridin-2-yl)-1H-pyrazolo[3,4-b]pyridin-5-yl)pyridin-3-yl)propionamide]: the EC50 in assay [1] was determined as 630 nM; in assay [2], 300 nM; in assay [3], 606 nM; in assay [4], 272 nM; in assay [5] it was 242 nM. The Emax in assay [2] turned out to be 114%.

Take `Fc1ccccc1-c1nccc2[nH]c(-c3n[nH]c4ncc(-c5cncnc5)cc34)cc12` [Compound 83, 3-(4-(2-Fluorophenyl)-1H-pyrrolo[3,2-c]pyridin-2-yl)-5-(pyrimidin-5-yl)-1H-pyrazolo[3,4-b]pyridine]: the EC50 is 2080 nM in assay [1], 1210 nM in assay [3], 4060 nM in assay [4] and above 10000 nM in assay [5]. Also, in assay [2], the Emax was determined as 36%. In addition, the inhibition at 10 µM in assay [5] was determined as 28.3%.

For the compound `O=C(Nc1cncc(-c2cnc3[nH]nc(-c4cc5c(-c6ccccc6F)nccc5[nH]4)c3c2)c1)c1ccccc1` [Compound 67, N-(5-(3-(4-(2-Fluorophenyl)-1H-pyrrolo[3,2-c]pyridin-2-yl)-1H-pyrazolo[3,4-b]pyridin-5-yl)pyridin-3-yl)benzamide], the EC50 in assay [1] was 1620 nM; in assay [2], 10 nM; in assay [3], above 10000 nM; in assay [4], 1980 nM; in assay [5], above 10000 nM. Besides, the Emax in assay [2] worked out at 101%. In addition, the results for the inhibition at 10 µM in assay [3] and in assay [5] were 6.3% and 41.4%, respectively.

As for `CC(C)CC(=O)Nc1cncc(-c2cnc3[nH]nc(-c4cc5c(-c6ccc(F)cc6)nccc5[nH]4)c3c2)c1` [Compound 30, N-(5-(3-(4-(4-Fluorophenyl)-1H-pyrrolo[3,2-c]pyridin-2-yl)-1H-pyrazolo[3,4-b]pyridin-5-yl)pyridin-3-yl)-3-methylbutanamide], the EC50 in assay [1] worked out at 523 nM; in assay [3] it was 261 nM; in assay [4], 996 nM; in assay [5], 1550 nM. For the same compound, the Emax in assay [2] stood at 107%.

For the compound `O=C(Nc1cncc(-c2cnc3[nH]nc(-c4cc5c(N6CCCCC6)nccc5[nH]4)c3c2)c1)C1CC1` [Compound 188, N-(5-(3-(4-(Piperidin-1-yl)-1H-pyrrolo[3,2-c]pyridin-2-yl)-1H-pyrazolo[3,4-b]pyridin-5-yl)pyridin-3-yl)cyclopropanecarboxamide], the EC50 was 6710 nM in assay [1], above 10000 nM in assay [3], 3850 nM in assay [4] and 2540 nM in assay [5]. Further, the Emax in assay [2] was determined as 42%. In addition, the inhibition at 10 µM in assay [3] was 0%.
